# Data published in patent publication US20090253644A1, “Radiosensitizer” (TOYO SUISAN KAISHA, LTD., priority 2004, published 2009).
# Values joined by “and” are separate entries in the source; they are usually repeats but may differ in a detail not shown here. Equal values may be shown once. “Also recorded” adds a separate entry of the source.
# Key:
# [1] = system: Bovine aortic endothelial cells (BAEC); test: Colony assay on vascular endothelial cells with 60Co γ-ray irradiation; type: cell-based; design: key to actually measured SF value of combined use group / actually measured SF value of combined use: SF = colonies/seeded cells×(PE/100); PE = control colony formation rate; settings: for SF (cell surviving fraction), administration alone: 24 hours, no irradiation
# Description: Bovine aortic endothelial cells (BAEC) were appropriately seeded on a petri dish, and adhesion of cells was confirmed after 2 to 3 hours. In a group of α-SQMG C18:0 administration alone and a combined use group, the cells were treated with 10 μM of α-SQMG C18:0. After 24 hours, a medium was exchanged in all test groups, and 4 Gy of ^60Co γ-ray was irradiated in a group of irradiation alone and a combined use group. After the cells were cultured in a CO2 incubator at 37° C. for 10 to 12 days, formed colonies were fixed with formalin, and stained with a crystal violet staining solution. On each plate, the number of colonies consisting of about 50 or more cells was counted, and cell surviving fraction (SF) was obtained according to the following equation.
# SF (cell surviving fraction)=number of colonies/number of seeded cells×(PE/100)
# Herein, PE (plating efficiency) represents a colony formation rate (%) on a plate of a control.
# An experiment was performed three times, and an average of them was calculated.
# The same experiment as that of Experimental Example 2-1 was performed except that a radiation dose 6 Gy was irradiated in place of 4 Gy used in Experimental Example 2-1. […]
# [2] = system: human lung cancer cells (A549 cells); test: Animal experiment: A549 tumor-transplanted nude mice, tumor growth delay with X-ray irradiation; type: in vivo; settings: Exp. Ex. 1-7: X-ray 4 Gy day 0 and day 3, 1 mg/kg i.p. once a day day 0 to 4
# Description: In the present Experimental Example, an experiment was performed in the same manner as in the aforementioned Experimental Examples except that human lung cancer cells (A549 cells) were transplanted into a nude mouse. Details of the experiment will be described below.
# Four nude mice (eight weeks old) were randomly assigned to each of four groups. 2.0×10^6 human lung cancer cells (A549 cells) were suspended in PBS (−), and the suspension was transplanted subcutaneously into a right thigh of each mouse. After 45 days, when tumor volume became about 50 mm^3, each mouse was subjected to treatment according to each group. As a radiosensitizer, α-SQMG C18:0 was used as in the aforementioned Experimental Examples. In a single use group of irradiation, X-ray was irradiated two times (at the time of treatment initiation (day 0) and on day 3 after the treatment initiation) at a dose of 4 Gy. In a single use group of α-SQMG C18:0 administration, α-SQMG C18:0 was intraperitoneally administered at a concentration of 1 mg/kg once a day at a total of 5 times from the time of treatment initiation (day 0) to day 4. […] Thereafter, a short diameter and a long diameter of a tumor were measured with a micrometer caliper over a period of 20 days. Tumor volume was calculated according to the following equation, and the tumor growth delaying effect was compared. […]
# [3] = system: angiogenesis (tube formation); test: Assay by angiogenesis kit (KZ-1000), tube formation; type: cell-based
# Description: The anti-angiogenic effect obtained by combined use of 20 μM of α-SQMG C18:0 administration and 4 Gy of ^60Co γ-ray irradiation was investigated using an angiogenesis kit (“angiogenesis kit KZ-1000” of Kurabo Industries Ltd.).
# A drug named Suramin is the known substance as a drug suppressing angiogenesis, and it is known that its action is to inhibit a growth factor receptor of a vascular endothelial cell. In the present Example, Suramin was used as a positive control at 50 μM.
# As described above, the “theoretical additive point of combined use” is calculated by multiplication, and the theoretical value is compared with an actually measured value.
# [4] = system: Human esophageal cancer cells (TE-8 cells); test: Animal experiment: TE-8 tumor-transplanted nude mice, tumor growth delay with X-ray irradiation; type: in vivo; settings: Exp. Ex. 1-5: X-ray 8 Gy day 0 and day 4
# Description: Five nude mice (eight weeks old) were randomly assigned to each of four groups. Human esophageal cancer cells (TE-8 cells) were transplanted to each mouse in the same manner as the above Experimental Example 1-1. When tumor volume reached 50 mm^3, α-SQMG C18:0 administration and irradiation treatment were performed. In a single use group of irradiation, each mouse was irradiated with X-ray at a dose of 8 Gy two times on day 0 and day 4. In a single use group of α-SQMG C18:0 administration, the sensitizer was intraperitoneally administered at a concentration of 1 mg/kg once a day at a total of 5 times from day 0 to day 4. In a combined use group, each mouse of the group was treated with both of irradiation and α-SQMG C18:0 administration. In the control group, neither irradiation nor α-SQMG C18:0 administration was performed. Thereafter, tumor volume was measured over a period of 51 days in the same manner as the above Experimental Example 1-1.
# In addition, an enhancement ratio (ER) was obtained according to the method described in Experimental Example 1-2. […] For this reason, an enhancement ratio was calculated from the number of days until tumor volume reaches 400 mm^3. As a result, ER was 3.25, and it was shown that synergistic effect was extremely high.
# SAS cells = test: Colony assay on SAS cells; type: cell-based, human; settings: same colony assay as Exp. Ex. 2-1 and 2-2
# [5] = 4 Gy 60Co γ-ray + α-SQMG C18:0 20 μM or Suramin 50 μM
smiles,measurement,setting,value
"CCCCCCCCCCCCCCCCCC(=O)OCC(O)CO[C@H]1O[C@H](CS(=O)(=O)[O-])[C@@H](O)[C@H](O)[C@H]1O.[Na+] (stereo partly drawn) [α-SQMG C18:0, 3-O-(6-deoxy-6-sulfo-α-D-glucopyranosyl)-1-O-stearoyl-glycerol sodium salt]",actually measured SF value of combined use,[1]; 5 μM + 2 Gy 60Co γ-ray,0.1370
same,theoretical additive point of combined use (SF),[1]; 5 μM + 2 Gy 60Co γ-ray,0.6012
same,"SF (cell surviving fraction), administration alone",[1]; 5 μM,1.0094
same,actually measured SF value of combined use,[1]; 10 μM + 2 Gy 60Co γ-ray,0.0644
same,theoretical additive point of combined use (SF),[1]; 10 μM + 2 Gy 60Co γ-ray,0.5620
same,actually measured SF value of combined use group,[1]; 10 μM + 4 Gy 60Co γ-ray,0.0640
same,theoretical additive point of combined use (SF),[1]; 10 μM + 4 Gy 60Co γ-ray,0.0974
same,actually measured SF value of combined use group,[1]; 10 μM + 6 Gy 60Co γ-ray,0.0180
same,theoretical additive point of combined use (SF),[1]; 10 μM + 6 Gy 60Co γ-ray,0.0505
same,"SF (cell surviving fraction), administration alone","[1]; 10 μM, sodium salt",0.616 and 0.9433
same,synergistic effect of combined use with radiation on suppression of proliferation of vascular endothelial cells,"[1]; 10 μM, 4 Gy and/or 6 Gy",considerably great synergistic effect
same,"cell proliferation suppressing effect, treatment alone","[1]; Exp. Ex. 2-5: 0 to 25 μM, 0 Gy",cell proliferation suppressing effect is not obtained
same,"effect of irradiation on suppression of cell proliferation, combined use","[1]; Exp. Ex. 2-5: 0 to 25 μM, 2 to 8 Gy 60Co γ-ray",increased
same,enhancement ratio (ER),[2],cannot be calculated
same,"anti-tumor effect (tumor volume), combined use with irradiation","[2]; sodium salt, 1 mg/kg",anti-tumor effect exceeding the anti-tumor effect attained by irradiation alone; also recorded: increase in tumor volume is scarcely seen
same,"tube formation rate, Actually measured value, combined use",[3]; [5],0.0762
same,"tube formation rate, Theoretical value (theoretical additive point of combined use)",[3]; [5],0.467
same,"tube formation rate, use alone","[3]; α-SQMG C18:0 20 μM, Suramin 50 μM, no irradiation",0.7229
same,enhancement ratio (ER),"[4]; 1 mg/kg i.p. day 0 to 4, calculated from days until tumor volume reaches 400 mm^3",3.25
same,"anti-tumor effect (tumor volume), combined use with irradiation",[4]; 1 mg/kg i.p. once a day day 0 to 4,anti-tumor effect far exceeding the anti-tumor effect attained by irradiation
same,cell proliferation suppressing effect on SAS cells,SAS cells,did not exert a cell proliferation suppressing effect
